Like-named read-outs stand apart in the source and are kept apart here.

The source of these data is patent US20160122723A1, “ENGINEERED THREE-DIMENSIONAL SKIN TISSUES, ARRAYS THEREOF, AND METHODS OF MAKING THE SAME” (ORGANOVO, INC., priority 2014, published 2016).

Type in all cases: cell-based, human
Data set [1] has as its system bioprinted full thickness skin tissue. Description: Skin irritation test, IL-1α production, 15 minute exposure, 24 well plate format (Example 5). An excerpt: (§1) Bio-ink was generated by a cellular mixture of 100% primary adult human dermal fibroblasts (HDFa) in 8% gelatin (Novogel® 2.0) in a concentration of 50 million cells per milliliter. The cell: gelatin ratio was altered to further reduce the cellular density of the dermal sheet to better mimic dermal tissue in native skin. Three-dimensional bio-ink constructs were printed by continuous deposition using the Novogen Bioprinter® platform in a 2 mm×2 mm×0.5 mm base sheet to create a dermal structure resembling a sheet. A smaller syringe needle was used to achieve greater resolution at the reduced size. Instead of printing one 0.5 mm sheet with a 500 μm diameter syringe needle, two layers of 0.25 mm sheets printed with a 250 μm diameter needle. One tissue construct was printed per transwell-in a 24 well plate. The transwell printing surface contained a polytetrafluoroethylene (PTFE)-membrane coated with equimolar mixture of types I and III collagen (bovine) with pores 3 μm in-size. Epidermal cell paste containing a mixture of 100% primary neonatal human epidermal keratinocytes (HEKn) was then printed on top of the dermal bio-ink. Cell paste was measured post print at 96.0% viable by trypan exclusion assay. Cell number in deposited epidermal layer was estimated at 11,000 cells by cell counting on a Cell-O-Meter. Immediately following the print, constructs were placed in 4° C. for 10 minutes. This is a key step to harden the Novogel®, which helps to maintain the printed shape and improve construct to construct uniformity. Cold media was then added to the outer well of the transwell in a volume of 1 ml. The media used for subsequent growth and maintenance of the skin tissue was a 50:50 ratio of HDFa:HEKn media. The initial volume added was sufficient to submerge the structure. […] IL-1α production (R&D Systems) was analyzed in a colorimetric assays per manufacturer's protocol. Media was analyzed for lactate dehydrogenase as a marker for cytotoxicity. IL-1α production was assessed as a complementary endpoint to classic cytotoxicity testing to improve predictability of irritants. […]

Data set [2] shares this test system. Description: Skin irritation test, LDH activity, 15 minute exposure, 24 well plate format (Example 5).
Text: as §1, with “Epidermal cell paste containing a mixture of 100% primary neonatal human epidermal keratinocytes (HEKn) was then printed on top of the dermal bio-ink.” left out, “assay.” for “assay. Cell number in deposited epidermal layer was estimated at 11,000 cells by cell counting on a Cell-O-Meter. Immediately following the print, constructs were placed in 4° C. for 10 minutes. This is a key step to harden the Novogel®, which helps to maintain the printed shape and improve construct to construct uniformity. Cold media was then added to the outer well of the transwell in a volume of 1 ml. The media used for subsequent growth and maintenance of the skin tissue was a 50:50 ratio of HDFa:HEKn media. The initial volume added was sufficient to submerge the structure.”

For data set [3] the test system is unchanged. Briefly: Skin irritation test, viability by alamar blue assay, 15 minute exposure, 24 well plate format (Example 5).
Text: as §1

Data set [4] has the same test system. Briefly: Skin irritation test, lactate dehydrogenase (LDH) activity in media, 1 hour exposure (Example 4). As to conditions: 1% Triton X 100 for 1 hour, apical; at 1 hour, 24 hours and 48 hours post treatment. The text has this:
(§2) Bio-ink was generated by a cellular mixture of 100% primary adult human dermal fibroblasts (HDFa) in 8% gelatin (Novogel® 2.0) at a concentration of 100 million cells per milliliter. The cell: gelatin ratio was altered to reduce the cellular density of the dermal sheet to better mimic dermal tissue in native skin. Three-dimensional bio-ink constructs were printed by continuous deposition using the Novogen Bioprinter® platform in a 4 mm×4 mm×0.5 mm base to create a dermal structure resembling a sheet. One tissue construct was printed per transwell in a […]. The transwell printing surface contained a polytetrafluoroethylene (PTFE) membrane coated with equimolar mixture of types I and III collagen (bovine) with pores 3 μm in size. Epidermal cell paste containing a mixture of 100% primary neonatal human epidermal keratinocytes (HEKn) was then printed on top of the dermal bio-ink. Cell paste was measured post print at 87.1% viable by trypan exclusion assay. Cell numbers in the deposited epidermal layer was estimated at 60,000 cells by cell counting on a Cell-O-Meter. […] IL-1α production (R&D Systems) was analyzed in a colorimetric assays per manufacturer's protocol. Media was analyzed for lactate dehydrogenase as a marker for cytotoxicity. IL-1α production was assessed as a complementary endpoint to classic cytotoxicity testing to improve predictability of irritants. […]

The test system is the same in data set [5]. Briefly: Skin irritation test, IL-1α production in media, colorimetric assay, 1 hour exposure (Example 4). Conditions: 1% for 1 hour.
Text: as §2, with “Cell-O-Meter. Immediately following the print, constructs were placed at 4° C. for 10 minutes. Cold media was then added to the outer well of the transwell in a volume of 3 ml. The media used for subsequent growth and maintenance of the skin tissue was a 50:50 ratio of HDFa:HEKn media. The initial volume added was sufficient to submerge the structure. All subsequent media changes used warmed media (37° C.) added to the outer well of the transwell and not to the inner basket. Media was changed 48 hours later and reduced to a volume of 1.5 ml per well to bring the structure to an air-liquid interface (ALI). Media and subsequently changed 48 hours after that (day 4) at a volume of 1.5 ml.” for “Cell-O-Meter.”

Data set [6] shares this test system. Description: Skin irritation test, viability by alamar blue assay, 1 hour exposure (Example 4). As to conditions: 1% for 1 hour; 48 hours post treatment (day 12).
Text: as §2
For orientation: Alamar Blue is a resazurin reagent that responds to reducing activity.

For data set [7] the test system is unchanged. Description: Skin irritation test, qPCR gene expression analysis (Example 4). Conditions: 1% for 1 hour. The text has this: Bio-ink was generated by a cellular mixture of 100% primary adult human dermal fibroblasts (HDFa) in 8% gelatin (Novogel® 2.0) at a concentration of 100 million cells per milliliter. The cell: gelatin ratio was altered to reduce the cellular density of the dermal sheet to better mimic dermal tissue in native skin. Three-dimensional bio-ink constructs were printed by continuous deposition using the Novogen Bioprinter® platform in a 4 mm×4 mm×0.5 mm base to create a dermal structure resembling a sheet. One tissue construct was printed per transwell in a […]. The transwell printing surface contained a polytetrafluoroethylene (PTFE) membrane coated with equimolar mixture of types I and III collagen (bovine) with pores 3 μm in size. Epidermal cell paste containing a mixture of 100% primary neonatal human epidermal keratinocytes (HEKn) was then printed on top of the dermal bio-ink. Cell paste was measured post print at 87.1% viable by trypan exclusion assay. Cell numbers in the deposited epidermal layer was estimated at 60,000 cells by cell counting on a Cell-O-Meter. Immediately following the print, constructs were placed at 4° C. for 10 minutes. Cold media was then added to the outer well of the transwell in a volume of 3 ml. The media used for subsequent growth and maintenance of the skin tissue was a 50:50 ratio of HDFa:HEKn media. The initial volume added was sufficient to submerge the structure. All subsequent media changes used warmed media (37° C.) added to the outer well of the transwell and not to the inner basket. Media was changed 48 hours later and reduced to a volume of 1.5 ml per well to bring the structure to an air-liquid interface (ALI). Media and subsequently changed 48 hours after that (day 4) at a volume of 1.5 ml. On day 5, media was changed and further reduced to 1 ml per well and subsequently changed daily. On day 10, skin tissues were subject to a skin irritation test method using 1% Triton X 100. 1% Triton X-100™ is a known irritant and reference chemical currently used in other 3D skin models. Methods were based on OECD guidelines 439 and 431 for applying human skin models to in vitro skin irritation or corrosion, respectively. On day 10, conditioned media was saved (designated time=0) and 1 ml of fresh media was added to the outer well of the transwell. The printed skin tissue was then treated with 20 μl of PBS as a negative control or with 20 μl of 1% Triton X-100™ as a positive control and known irritant. […] IL-1α production (R&D Systems) was analyzed in a colorimetric assays per manufacturer's protocol. Media was analyzed for lactate dehydrogenase as a marker for cytotoxicity. IL-1α production was assessed as a complementary endpoint to classic cytotoxicity testing to improve predictability of irritants. […]

Data set [8] has the same test system. Description: Skin irritation test, macroscopic and histological analysis (H&E, CK5/IVL, CK10, collagen 3, PCNA, TUNEL) (Example 4). Conditions: 1% for 1 hour. The text has this: Bio-ink was generated by a cellular mixture of 100% primary adult human dermal fibroblasts (HDFa) in 8% gelatin (Novogel® 2.0) at a concentration of 100 million cells per milliliter. The cell: gelatin ratio was altered to reduce the cellular density of the dermal sheet to better mimic dermal tissue in native skin. Three-dimensional bio-ink constructs were printed by continuous deposition using the Novogen Bioprinter® platform in a 4 mm×4 mm×0.5 mm base to create a dermal structure resembling a sheet. One tissue construct was printed per transwell in a […]. The transwell printing surface contained a polytetrafluoroethylene (PTFE) membrane coated with equimolar mixture of types I and III collagen (bovine) with pores 3 μm in size. Epidermal cell paste containing a mixture of 100% primary neonatal human epidermal keratinocytes (HEKn) was then printed on top of the dermal bio-ink. Cell paste was measured post print at 87.1% viable by trypan exclusion assay. Cell numbers in the deposited epidermal layer was estimated at 60,000 cells by cell counting on a Cell-O-Meter. Immediately following the print, constructs were placed at 4° C. for 10 minutes. Cold media was then added to the outer well of the transwell in a volume of 3 ml. The media used for subsequent growth and maintenance of the skin tissue was a 50:50 ratio of HDFa:HEKn media. The initial volume added was sufficient to submerge the structure. All subsequent media changes used warmed media (37° C.) added to the outer well of the transwell and not to the inner basket. Media was changed 48 hours later and reduced to a volume of 1.5 ml per well to bring the structure to an air-liquid interface (ALI). Media and subsequently changed 48 hours after that (day 4) at a volume of 1.5 ml. On day 5, media was changed and further reduced to 1 ml per well and subsequently changed daily. On day 10, skin tissues were subject to a skin irritation test method using 1% Triton X 100. 1% Triton X-100™ is a known irritant and reference chemical currently used in other 3D skin models. Methods were based on OECD guidelines 439 and 431 for applying human skin models to in vitro skin irritation or corrosion, respectively. On day 10, conditioned media was saved (designated time=0) and 1 ml of fresh media was added to the outer well of the transwell. The printed skin tissue was then treated with 20 μl of PBS as a negative control or with 20 μl of 1% Triton X-100™ as a positive control and known irritant. Test substances were pipetted manually to the apical surface of the tissue. Triton X-100™ was diluted to a 1% aqueous solution in deionized water and sterile filtered through a […] filter before use. Samples were incubated for 30 minutes at 37° C. followed by 30 minutes at room temperature for a total of 60 minutes. Media was saved (designated time=1 hour). Samples were then washed extensively by PBS rinsing. Transwells were then placed in a new 6-well plate with fresh media (1 ml) added to the outer well then placed back into 37° C. overnight. The media was then changed at 24 hours and at 48 hours post treatment. Total media collected included time points=−48, 0, 1, 24, and 48 hours. IL-1α production (R&D Systems) was analyzed in a colorimetric assays per manufacturer's protocol. Media was analyzed for lactate dehydrogenase as a marker for cytotoxicity. IL-1α production was assessed as a complementary endpoint to classic cytotoxicity testing to improve predictability of irritants. Keratinocytes normally produce and release inflammatory cytokine IL-1α in response to chemical or physical stress. At 48 hours post treatment (day 12), tissues were either lysed for RNA extraction and subsequent qPCR analysis, or tested for viability by alamar blue assay then rinsed in PBS and fixed with 2% PFA for histological analysis. Alamar blue (Life Technologies) was added per manufacturer's instructions to media and incubated with tissue constructs (1 ml) at 37° C. for 3 hours. […]

Regarding `CCCCCCCCCCCCOS(=O)(=O)[O-].[Na+]` [SDS], in data set [1], the IL-1a production result is “induced” and the “IL-1a production, response compared between the two irritants” value was “much stronger response”. In data set [2], the “LDH activity higher than PBS” value is on record as “about 1.7 fold”. Also, in data set [3], the “irritant strength under these testing conditions” value is on record as “much stronger irritant” and the “viable compared to the PBS control (alamar blue)” value is 2.45%.

In the case of Triton X-100, the IL-1a production result in data set [1] (15 minute exposure, 5% SDS or 1% Triton X) is recorded as “induced”. Besides, in data set [4], the “induction in LDH activity compared to PBS control” value is on record as “roughly 2 fold”. In data set [5] (24 hours post treatment), the IL-1α levels entry is “remained high”. Also, in data set [5] (48 hours post treatment), the IL-1α levels result is “returned to baseline”. For the same compound, the “IL-1α activity in comparison to PBS control” value in data set [5] (greatest difference observed 1 hour post treatment) is “increased”. Besides, in data set [2] (15 minute exposure, 5% SDS or 1% Triton X, 42 hours post exposure), the “LDH activity higher than PBS” value was “about 1.4 fold”. The “reduction in viability as compared to the PBS control” value in data set [6] was 80%. The “viable compared to the PBS control (alamar blue)” value in data set [3] (15 minute exposure, 5% SDS or 1% Triton X, 42 hours post treatment (day 15)) is 68.75%. Moreover, in data set [7] (48 hours post exposure), the “CK1 and CK10 gene expression” value is on record as “reduced”; the “collagen production of types 1, 3, and 4 collagen (gene expression)” value is given as “reduced”; the “expression of both epidermal and dermal markers” value is on record as “dramatically reduces”. For the same compound, the “IL1a gene expression increase in comparison to the PBS control” value in data set [7] (48 hours post treatment) is “about 3 fold”. Besides, in data set [8], the “irritancy to bioprinted skin as suggested by histology” value is “irritant”. For the same compound, in data set [8] (48 hours post treatment), the “CK5 positive basal keratinocyte layer” value was “fragmented”; the “Collagen 3 staining compared to the PBS control” value is “reduction in dermal fibroblast function”; the “apoptosis by TUNEL staining in the dermal layer” value is given as “increase in apoptosis”; the “histological analysis by H&E” value is “separation of the epidermal and dermal layers”. Moreover, the “proliferation by PCNA staining” value in data set [8] (48 hours post treatment, dermal fibroblasts and basal layer) is recorded as “reduction in proliferation”.
